Source: paper PMC4550849 (Scientific Reports, 2015)

Experiments:
[1] = tested on: RAW264.7 cells treated with anthrax lethal toxin (PA + LF)
in vitro [2] = conditions: hamster
[3] = tested on: Respiratory syncytial virus (RSV): Strain A-2; assay: microbe, parasite or virus in culture; format: cell-based; conditions: human respiratory syncytial virus, HEp-2
[4] = tested on: RAW264.7 cells treated with Pseudomonas aeruginosa Exotoxin A; assay: cells; format: cell-based; conditions: Mus musculus, RAW264.7, 6 h
[5] = tested on: Venezuelan equine encephalitis virus (VEEV, Strain TC-83); assay: microbe, parasite or virus in culture; format: cell-based
Poliovirus: WM3 = assay: microbe, parasite or virus in culture; format: cell-based, Poliovirus 3; conditions: Enterovirus C, LLC-MK2
Ebola virus = conditions: cited from earlier work
[6] = tested on: Human Cytomegalovirus (CMV, Strain AD169); assay: microbe, parasite or virus in culture; format: cell-based; conditions: Human betaherpesvirus 5, AD169, HFF, 336 h
[7] = tested on: acidic vesicles in RAW264.7 cells; format: cell-based, mouse; conditions: AQ 1 h, 500 ng/ml PA 1 h
[8] = tested on: RAW264.7 cells treated with Cholera toxin; assay: cells; format: cell-based; conditions: Mus musculus, RAW264.7, 6 h
Ebola virus (EBOV) = assay: microbe, parasite or virus in culture; format: cell-based; conditions: Zaire ebolavirus, HFF-1, 48 h
[9] = tested on: C32 cells treated with diphtheria toxin; format: cell-based, human
[10] = tested on: PA83 binding to RAW264.7 cells; format: cell-based, mouse
[11] = tested on: Herpes Simplex Virus 1 (HSV-1, Strain E-377); assay: microbe, parasite or virus in culture; format: cell-based; conditions: Human alphaherpesvirus 1, HFF, 72 h
caspase-1 = format: cell-based, mouse
MEK-2 = format: cell-based, mouse
[12] = tested on: Plasmodium falciparum phosphoethanolamine methyltransferase; conditions: cited from earlier work
in vitro [13] = conditions: African green monkey
SARS CoV Strain Urbani = assay: microbe, parasite or virus in culture; format: cell-based, SARS coronavirus; conditions: Severe acute respiratory syndrome coronavirus, Vero 76
[14] = tested on: anthrax toxin (LF + PA) lethality; set-up: species or system Sprague-Dawley rats; conditions: rat, in vivo
in vitro [15] = conditions: human
in vitro [16] = conditions: rhesus monkey
[17] = tested on: RAW264.7 cells treated with PA + FP59; format: cell-based, mouse
LF = LF (Bacillus anthracis, UniProt P15917); format: biochemical
cathepsin B = cathepsin B (Homo sapiens, UniProt P07858); format: binding
HeLa cells = conditions: human
[18] = target: purified human cathepsin B (Homo sapiens, UniProt P07858); format: biochemical; conditions: 4, 8, 16, 33, or 66 μM; without pre-incubation; pH 5.8
[19] = tested on: RAW264.7 cells treated with Clostridium difficile toxin B; assay: cells; format: cell-based; conditions: Mus musculus, RAW264.7, 6 h
Ebola = conditions: in vivo; cited from earlier work
Rabies (Strain Flury) = assay: microbe, parasite or virus in culture; format: cell-based; conditions: Lyssavirus rabies, BHK-21, 120 h
Junin (JUNV) = assay: microbe, parasite or virus in culture; format: cell-based, Junin virus; conditions: Mammarenavirus juninense
Ebola virus (Kikwit) = assay: microbe, parasite or virus in culture; format: cell-based; conditions: Zaire ebolavirus, HeLa
Chikungunya (CHIV) = assay: microbe, parasite or virus in culture; format: cell-based
in vitro [20] = conditions: human; remark: listed apart in the source
endosomal acidification = conditions: cited from earlier work
[21] = tested on: RAW264.7 cells treated with anthrax lethal toxin (PA + LF); assay: cells; conditions: Mus musculus, RAW264.7, read-out: EC50, reduction of anthrax toxin-mediated cytotoxicity
[22] = human, in vivo, cited from earlier work
[23] = tested on: host lysosomal cathepsin B; conditions: cited from earlier work

Sequence of LF (P15917 34-809 limits assumed): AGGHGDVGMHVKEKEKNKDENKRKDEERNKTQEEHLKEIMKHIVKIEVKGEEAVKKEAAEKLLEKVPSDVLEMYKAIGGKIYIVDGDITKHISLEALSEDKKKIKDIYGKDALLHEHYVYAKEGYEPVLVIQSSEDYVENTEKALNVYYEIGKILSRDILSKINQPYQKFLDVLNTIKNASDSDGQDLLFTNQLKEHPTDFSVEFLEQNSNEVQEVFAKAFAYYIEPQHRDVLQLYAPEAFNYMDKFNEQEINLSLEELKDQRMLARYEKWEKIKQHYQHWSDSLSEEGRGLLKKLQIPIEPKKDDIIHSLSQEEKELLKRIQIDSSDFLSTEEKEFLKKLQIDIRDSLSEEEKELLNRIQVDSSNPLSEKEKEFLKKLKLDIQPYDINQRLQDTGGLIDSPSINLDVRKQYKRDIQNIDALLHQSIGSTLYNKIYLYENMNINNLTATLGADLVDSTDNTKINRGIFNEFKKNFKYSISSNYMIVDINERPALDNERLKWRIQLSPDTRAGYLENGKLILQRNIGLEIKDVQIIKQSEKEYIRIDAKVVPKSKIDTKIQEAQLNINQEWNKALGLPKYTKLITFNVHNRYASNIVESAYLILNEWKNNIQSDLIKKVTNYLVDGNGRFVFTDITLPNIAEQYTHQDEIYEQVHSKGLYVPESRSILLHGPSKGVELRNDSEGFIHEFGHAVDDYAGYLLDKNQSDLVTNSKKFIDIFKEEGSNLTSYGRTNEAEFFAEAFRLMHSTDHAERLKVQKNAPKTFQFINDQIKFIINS

C=C[C@H]1C[N@@]2CC[C@H]1C[C@@H]2[C@@H](O)c1ccnc2ccccc12 [Cinchonine]
protection of host cells against anthrax toxin killing (cell viability, MTT) [1]: none

CCN(CC)Cc1cc(Nc2ccnc3cc(Cl)ccc23)ccc1O [AQ, Amodiaquine]
CC50 (in vitro [2]): > 10 µM | EC50 [3]: 32 µM | EC50 [4]: > 66.7 µM | EC50 [5]: 3.2 µM | EC50 (Poliovirus: WM3): > 100 µM | Ebola virus pathogenicity in cells (Ebola virus): inhibit Ebola virus pathogenicity in cells | EC50 [6]: > 60 µM | cell-associated Lysosensor fluorescence (acidic organelles) [7]: markedly decreased | EC50 [8]: > 66.7 µM | EC50 (Ebola virus (EBOV)): 2.6 µM | inhibition of diphtheria toxin cell killing (multiplex hit) [9]: inhibited | binding of PA83 to cells [10]: did not block | proteolytic processing of PA to generate PA63 [10]: did not block | EC50 [11]: > 60 µM | active caspase-1 after LF-PA treatment (FLICA) (caspase-1): not detected | LF-PA-mediated cleavage of MEK2 (MEK-2): completely prevented | inhibition of Plasmodium falciparum phosphoethanolamine methyltransferase [12]: inhibits | CC50 (in vitro [13]): 32 µM | EC50 (SARS CoV Strain Urbani): 2.4 µM | rats saved after lethal anthrax toxin challenge [14]: 40% | survival after lethal anthrax toxin challenge [14]: all survived | CC50 (in vitro [15]; CC50): 50 µM | CC50 (in vitro [16]): > 100 µM | sensitivity of cells to PA + FP59 [17]: less sensitive | proteolytic activity of LF on MAPKK peptide (emission at 523 nm) (LF): does not block | binding to cathepsin B (STD difference spectrum) (cathepsin B; 2 mM AQ, 20 μM cathepsin B (100:1)): binding to the enzyme | STD effect, atom H4 (cathepsin B; relative to H4 atom (100%)): 100% | STD effect, atom H5 (cathepsin B; relative to H4 atom (100%)): 97% | CC50 (HeLa cells): > 50 µM | inhibition of purified human cathepsin B activity [18]: directly inhibit cathepsin B activity in a dose dependent manner | protection of host cells against anthrax toxin killing (cell viability, MTT) [1]: completely protect | sensitivity of host cells to PA83 + LF and PA63 + LF [1]: equally reduces sensitivity | EC50 [19]: 4.6 µM | reduction of Ebola mortality risk (Ebola): 31% | EC50 (Rabies (Strain Flury)): 5.7 µM | EC50 (Junin (JUNV)): 16.9 µM | EC50 (Ebola virus (Kikwit)): 2.4 µM | EC50 (Ebola virus (Kikwit); 24 h): 2 µM | EC50 (Ebola virus (Kikwit); 48 h): 4 µM | EC50 (Chikungunya (CHIV)): 18.4 µM

CCNCCCC(C)Nc1ccnc2cc(Cl)ccc12 (centres unmarked) [DECQ, Desethyl-Chloroquine]
EC50 (Ebola virus (EBOV)): 3.2 µM | CC50 (in vitro [15]; CC50): 100 µM | inhibition of purified human cathepsin B activity [18]: weaker inhibitors | CC50 (in vitro [20]): 70 µM | EC50 (Ebola virus (Kikwit); 48 h): 7.3 µM

COc1cc(NC(C)CCCN)c2ncccc2c1 (centres unmarked) [Primaquine]
protection of host cells against anthrax toxin killing (cell viability, MTT) [1]: none

CCN(CC)CCCC(C)Nc1ccnc2cc(Cl)ccc12 (centres unmarked) [CQ, Chloroquine]
Ebola virus pathogenicity in cells (Ebola virus): inhibit Ebola virus pathogenicity in cells | endosomal acidification (endosomal acidification): prevent endosomal acidification | EC50 (Ebola virus (EBOV)): 2.5 µM | inhibition of diphtheria toxin cell killing (multiplex hit) [9]: inhibited | CC50 (in vitro [15]; CC50): 100 µM | inhibition of purified human cathepsin B activity [18]: weaker inhibitors | CC50 (in vitro [20]): 70 µM | EC50 (Ebola virus (Kikwit); 48 h): 4.8 µM

C=C[C@H]1C[N@@]2CC[C@H]1C[C@@H]2[C@@H](O)c1ccnc2ccc(OC)cc12 [Quinidine]
protection of host cells against anthrax toxin killing (cell viability, MTT) [1]: none

CCNCc1cc(Nc2ccnc3cc(Cl)ccc23)ccc1O [DEAQ, Desethyl-Amodiaquine]
EC50 [21]: 5 µM | terminal half-life ([22]; po): 220 to 432 h | Cmax (maximal amounts of drug in the blood after oral administration) [22]: low μM range | EC50 (Ebola virus (EBOV)): 2.1 µM | CC50 (in vitro [15]; CC50): 50 µM | CC50 (in vitro [15]; CC50, 24 h): > 50 µM | CC50 (in vitro [15]; CC50, 48 h): > 50 µM | inhibition of purified human cathepsin B activity [18]: directly inhibit cathepsin B activity in a dose dependent manner | EC50 (Junin (JUNV)): 13.8 µM | EC50 (Ebola virus (Kikwit); 24 h): 2 µM | EC50 (Ebola virus (Kikwit); 48 h): 4 µM | EC50 (Chikungunya (CHIV)): 17.3 µM

CA-074
accumulation of PA pores in late endosomes [23]: elevated accumulation | cellular sensitivity to LF-PA [23]: reduction of cellular sensitivity | release of LF from the late endosomes into the cytoplasm [23]: inability of LF to be released
